Experiment: Thermal denaturation (melting) of DNA-capped AuNP by UV-vis at 260 nm as a function of DOX loading
Format: physicochemical
Conditions: control studies, r=12; [DOX]=5.9 μM; [AuNP]=13.7 nM
Protocol: To probe the uptake of DOX via intercalation to 1ab-AuNP, we investigated the thermal denaturation of the 1ab strands by measuring increase in extinction at 260 nm using UV-visible spectroscopy (UV-vis).
We next utilized the 1ab- or 2ab-AuNP prepared above, with dsDNA-functionalization, for drug (DOX) loading. For each DOX binding and melting experiment, 1ab- or 2ab-AuNP were incubated for 40 min with DOX at specific ratios, r=[DOX]/[1ab/2ab]. In this study, we explored r=0-12, based on the number of 1ab per AuNP, as well as the number of binding sites at each 1ab. Next, each DOX-1ab-AuNP was analyzed via thermal denaturation melting experiments using temperature controlled UV-vis at Abs=260 nm and a heating rate of 1° C./min from 25° C. to 80° C. Each melting temperature was taken as the maximum of a peak-fitted first derivative plot of its corresponding melting curve (using PeakFit® Peak Separation and Analysis Software, V.4.12).
UV-visible Absorption (UV-vis): The UV-vis measurements were collected on a Varian Cary100 Bio UV-vis spectrophotometer between 200-900 nm. The instrument is equipped with an 8-cell automated holder with high precision Peltier heating controller.

Cooperative melting in the temperature range of ~55-65° C.: not observed
SMILES: COc1cccc2c1C(=O)c1c(O)c3c(c(O)c1C2=O)C[C@@](O)(C(=O)CO)C[C@@H]3O[C@H]1C[C@H](N)[C@H](O)[C@H](C)O1 [DOX, doxorubicin]

From patent US8632789B2, “System and method for delivery of DNA-binding chemotherapy drugs using nanoparticles” (Syracuse University, priority 2010, dated 2014)
